# Results reported in ChEMBL document CHEMBL1152546, “N-[2-chloro-9H-purin-6-yl]-N-cyclopropylglycylamino acids and derivatives: synthesis, evaluation as a class of novel analgesics, and 3D QSAR analysis” (2009).
# How the values were obtained:
# Assay type in all cases: functional
# [1] = tested on: Mus musculus; assay: Analgesic activity in ICR mouse assessed as pain threshold variation at 25 umol/kg, po administered as single dose measured after 30 mins by tail flick test relative to control
# [2] = tested on: Mus musculus; assay: Analgesic activity in ICR mouse assessed as pain threshold variation at 25 umol/kg, po administered as single dose measured after 60 mins by tail flick test relative to control
# [3] = tested on: Mus musculus; assay: Analgesic activity in ICR mouse assessed as pain threshold variation at 25 umol/kg, po administered as single dose measured after 90 mins by tail flick test relative to control
# [4] = tested on: Mus musculus; assay: Analgesic activity in ICR mouse assessed as pain threshold variation at 25 umol/kg, po administered as single dose measured after 120 mins by tail flick test relative to control
# [5] = tested on: Mus musculus; assay: Analgesic activity in ICR mouse assessed as pain threshold variation at 25 umol/kg, po administered as single dose measured after 150 mins by tail flick test relative to control
# [6] = tested on: Mus musculus; assay: Analgesic activity in ICR mouse assessed as pain threshold variation at 25 umol/kg, po administered as single dose measured after 180 mins by tail flick test relative to control
Structure (SMILES),Activity [1],Activity [2],Activity [3],Activity [4],Activity [5],Activity [6]
C[C@H](NC(=O)CN(c1nc(Cl)nc2[nH]cnc12)C1CC1)C(=O)OCc1ccccc1,41.23%,64.29%,44.16%,36.13%,23%,15.09%
O=C(CN(c1ncnc2c1ncn2C1CCCCO1)C1CC1)N[C@@H](Cc1cnc[nH]1)C(=O)OCc1ccccc1 (some centres undefined),24.98%,36.43%,14.45%,10.16%,5.31%,4.38%
O=C(CN(c1nc(Cl)nc2[nH]cnc12)C1CC1)N[C@@H](Cc1c[nH]c2ccccc12)C(=O)OCc1ccccc1,30.67%,42.24%,40.71%,21.51%,10.71%,7.78%
O=C(CN(c1nc(Cl)nc2[nH]cnc12)C1CC1)N[C@@H](CO)C(=O)OCc1ccccc1,31.88%,34.17%,34.53%,34.5%,27.88%,11.5%
C[C@H](NC(=O)CN(c1nc(Cl)nc2[nH]cnc12)C1CC1)C(=O)O,48.1%,44.64%,43.53%,28.41%,14.68%,6.68%
CC[C@H](C)[C@H](NC(=O)CN(c1ncnc2c1ncn2C1CCCCO1)C1CC1)C(=O)OCc1ccccc1 (some centres undefined),25.56%,27.35%,22.57%,20.42%,16.43%,9.15%
CC[C@H](C)[C@H](NC(=O)CN(c1nc(Cl)nc2[nH]cnc12)C1CC1)C(=O)OCc1ccccc1,41.39%,40.63%,36.28%,21.97%,6.9%,3.38%
NC(=O)CC[C@H](NC(=O)CN(c1nc(Cl)nc2[nH]cnc12)C1CC1)C(=O)OCc1ccccc1,30.76%,33.07%,42.83%,36.04%,31.07%,19.17%
O=C(CN(c1ncnc2c1ncn2C1CCCCO1)C1CC1)N[C@@H](CO)C(=O)OCc1ccccc1 (some centres undefined),27.77%,46.71%,32.17%,29.2%,18.32%,12.85%
O=C(O)CNC(=O)CN(c1nc(Cl)nc2[nH]cnc12)C1CC1,32.16%,38.89%,32.31%,19.81%,9.08%,8.11%
O=C(CN(c1nc(Cl)nc2[nH]cnc12)C1CC1)N[C@@H](CO)C(=O)O,38.65%,39.76%,43.9%,39%,18.83%,12.32%
O=C(CN(c1ncnc2c1ncn2C1CCCCO1)C1CC1)N[C@@H](CC(=O)OCc1ccccc1)C(=O)OCc1ccccc1 (some centres undefined),31.81%,38.15%,25.07%,7.82%,0.06%,0.03%
O=C(CN(c1nc(Cl)nc2[nH]cnc12)C1CC1)N[C@@H](Cc1cnc[nH]1)C(=O)OCc1ccccc1,29.06%,26.6%,15.04%,10.15%,5.05%,4.18%
O=C(CN(c1ncnc2c1ncn2C1CCCCO1)C1CC1)N[C@@H](Cc1ccccc1)C(=O)OCc1ccccc1 (some centres undefined),39.2%,45.54%,37.73%,26.29%,3.49%,1.79%
O=C(CN(c1nc(Cl)nc2[nH]cnc12)C1CC1)N[C@@H](Cc1ccccc1)C(=O)OCc1ccccc1,39.38%,38.92%,27.14%,20.4%,10.73%,5.15%
O=C(CN(c1nc(Cl)nc2[nH]cnc12)C1CC1)N[C@@H](Cc1ccc(O)cc1)C(=O)O,46.22%,43.23%,33.92%,23.69%,13.71%,8.15%
C[C@H](NC(=O)CN(c1ncnc2c1ncn2C1CCCCO1)C1CC1)C(=O)OCc1ccccc1 (some centres undefined),55.91%,53%,32.06%,25.3%,6.01%,5.96%

Structure (SMILES),Activity [1],Activity [2],Activity [3],Activity [4],Activity [5],Activity [6]
NC(=O)C[C@H](NC(=O)CN(c1nc(Cl)nc2[nH]cnc12)C1CC1)C(=O)O,29.73%,43.14%,20.06%,17.03%,7.51%,5.66%
O=C(O)CC[C@H](NC(=O)CN(c1nc(Cl)nc2[nH]cnc12)C1CC1)C(=O)O,26.81%,33.25%,44.7%,30.08%,29.46%,10.05%
NC(=O)CC[C@H](NC(=O)CN(c1nc(Cl)nc2[nH]cnc12)C1CC1)C(=O)O,33.11%,38.4%,41.1%,17.75%,11.38%,9.07%
O=C(CN(c1nc(Cl)nc2[nH]cnc12)C1CC1)N[C@@H](CC(=O)OCc1ccccc1)C(=O)OCc1ccccc1,34.7%,22.4%,15.58%,12.14%,6.68%,2.87%
O=C(CN(c1nc(Cl)nc2[nH]cnc12)C1CC1)N[C@@H](Cc1c[nH]c2ccccc12)C(=O)O,17.55%,17.84%,18.3%,8.19%,5.27%,3.91%
CC[C@H](C)[C@H](NC(=O)CN(c1nc(Cl)nc2[nH]cnc12)C1CC1)C(=O)O,30.34%,35.97%,27.39%,21.42%,6.71%,3.9%
CSCC[C@H](NC(=O)CN(c1ncnc2c1ncn2C1CCCCO1)C1CC1)C(=O)OCc1ccccc1 (some centres undefined),30.04%,40.97%,42.7%,28.66%,17.47%,12.89%
N=C(N)NCCC[C@H](NC(=O)CN(c1nc(Cl)nc2[nH]cnc12)C1CC1)C(=O)OCc1ccccc1,23.19%,30.57%,30.44%,10.24%,6.12%,1.78%
NC(=O)C[C@H](NC(=O)CN(c1nc(Cl)nc2[nH]cnc12)C1CC1)C(=O)OCc1ccccc1,24.41%,36.36%,32.27%,15.13%,13.49%,5.3%
CCOC(=O)CN(c1nc(Cl)nc2c1ncn2C1CCCCO1)C1CC1 (centres undefined),9.92%,22.64%,13.04%,14.91%,11.85%,5.33%
C[C@@H](O)[C@H](NC(=O)CN(c1nc(Cl)nc2[nH]cnc12)C1CC1)C(=O)O,18.59%,30.07%,35.87%,37.59%,24.02%,4.69%
CC(C)C[C@H](NC(=O)CN(c1nc(Cl)nc2[nH]cnc12)C1CC1)C(=O)OCc1ccccc1,33.91%,27.26%,15.21%,8.58%,5.26%,4.29%
CC(C)C[C@H](NC(=O)CN(c1ncnc2c1ncn2C1CCCCO1)C1CC1)C(=O)OCc1ccccc1 (some centres undefined),26.2%,34.19%,28.22%,12.79%,6.47%,0.04%
O=C(CN(c1nc(Cl)nc2[nH]cnc12)C1CC1)N[C@@H](Cc1ccc(O)cc1)C(=O)OCc1ccccc1,22.6%,22%,15.02%,13.65%,9.38%,4.33%
O=C(CN(c1nc(Cl)nc2[nH]cnc12)C1CC1)N[C@@H](CCC(=O)OCc1ccccc1)C(=O)OCc1ccccc1,52.8%,53.74%,50%,45.94%,44.46%,29.87%
CC(C)(C)OC(=O)NCCCC[C@H](NC(=O)CN(c1ncnc2c1ncn2C1CCCCO1)C1CC1)C(=O)OCc1ccccc1 (some centres undefined),18.33%,32.66%,32.85%,28.39%,17.2%,10.06%
NC(=O)CC[C@H](NC(=O)CN(c1ncnc2c1ncn2C1CCCCO1)C1CC1)C(=O)OCc1ccccc1 (some centres undefined),46.96%,39.4%,37.82%,22.34%,10.72%,7.71%
